Laboratory results published in patent US9845330B2, “6-nitro-2,3-dihydroimidazo[2,1-b]oxazoles and a process for the preparation thereof” (priority 2013, dated 2017).
Values after ≈ are worked out from the molar mass of the structure shown. Read-outs that look alike come from different tables or passages of the source.

Tests used:
[1] = test system: macrophage J774 cells line; test: Cytotoxicity assay (MTT) in macrophage J774 cells; assay type: cell-based; conditions: J774 cells, 24 hrs, MTT
Procedure, shortened: (§1)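 J774 cells seeded at 3×10^4 cells/cm^2 in RPMI with FCS reduced to 5%, then exposed to compounds at 40 μg/ml for 24 hrs. MTT reduction read at 450 nm; percentage cytotoxicity calculated relative to untreated cells.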

[2] = Cytotoxicity assay (MTT) in macrophage J774 cells; assay type: cell-based; conditions: mouse, J774 macrophage cells; also called safety index
Procedure, shortened: as §1

[3] = test system: M. tuberculosis H37Rv (ATCC 27294); test: MIC by broth dilution method, M. tuberculosis H37Rv; assay type: cell-based; conditions: Mycobacterium tuberculosis
[4] = test system: M. tuberculosis H37Rv; test: Combination studies, checkerboard method; assay type: cell-based, Mycobacterium tuberculosis; conditions: for FIC (MIC combination/MIC alone): FIC A; for MIC alone / MIC with IA25 / MIC with IIA3: checkerboard; for MIC with IA25: in combination with IA25; for MIC with IIA3: in combination with IIA3
Protocol: The efficacy of compounds IA25 and IIA3 (conc range 4 μg/ml to 0.007 μg/ml) in combination with currently used anti-TB drugs such as rifampicin, isoniazid and ethambutol (each drug tested at conc range 4 μg/ml to […]), wherein the ratio of drugs was ranging between 0.1% to 50%, was determined in vitro using checkerboard method. The checkerboard procedure was performed based on the MIC values by the broth microdilution method. The checkerboard method was performed in 96 well U bottom microtitre plates. 100 microliters of 4× concentration of drug was added to first column of the plate. 50 microliters from first column was transferred to second column and was serially diluted in horizontal manner upto column 10 of the plate. Seven dilutions of 4× concentration of compound were prepared in eppendorfs and fifty microliters of each concentration was added vertically starting from eleventh column of row eight to row second of the plate. First row of the plate served as drug control. 100 microliters of 1:10 diluted of 1 Mc Farland inoculum was added to each well of the plate. Plates were then incubated at 37° C. for 14 days. MIC of drug alone and in presence of compound and vice versa was observed visually. […] The FIC index value for each concentration of two-drug combination was calculated and the minimum value was adopted.

[5] = 504 h, broth dilution, 3 weeks, read-out: MIC M. tb H37Rv
[6] = read-out: MIC value, text summary: sensitive H37Rv as well as MDR and XDR strains of M. tuberculosis

Structure (SMILES) | Cytotoxicity [1] [µg/mL] | selectivity ratio at 24 h, 40 μg/ml [2] | MIC [3, 5] [µg/mL] | MIC [3, 6] [µg/mL] | FIC (MIC combination/MIC alone) ([4]; drug in combination with IA25) | FIC (MIC combination/MIC alone) ([4]; drug in combination with IIA3) | MIC alone [4] [µg/mL] | MIC with IA25 [4] [µg/mL] | MIC with IIA3 [4] [µg/mL]
C[C@]1(COc2ccc(-n3cc(COc4ccccc4F)nn3)cc2)Cn2cc([N+](=O)[O-])nc2O1 [IA28] | >40 | > 10 | 0.12 (≈ 0.257 µM) | < 1 | – | – | – | – | –
CC(C)c1ccc(OCc2cc(-c3ccc(OC[C@@]4(C)Cn5cc([N+](=O)[O-])nc5O4)cc3)no2)cc1 [IC18, (R)-2-{4-[5-(4-isopropylphenoxymethyl)isoxazol-3-yl]phenoxymethyl}-2,3-dihydro-2-methyl-6-nitroimidazo[2,1-b]oxazole] | >40 | > 10 | 0.25 (≈ 0.51 µM) | < 1 | – | – | – | – | –
C[C@]1(COc2ccc(S(=O)(=O)N3CCN(c4cccc(Cl)c4)CC3)cc2)Cn2cc([N+](=O)[O-])nc2O1 [IIC3, (R)-2-{4-[4-(3-chlorophenyl)piperazin-1-yl]sulfonylphenoxymethyl}-2,3-dihydro-2-methyl-6-nitroimidazo[2,1-b]oxazole] | >40 | > 10 | 8 (≈ 15 µM) | – | – | – | – | – | –
CO[C@H]1/C=C/O[C@@]2(C)Oc3c(C)c(O)c4c(O)c(c(/C=N/N5CCN(C)CC5)c(O)c4c3C2=O)NC(=O)/C(C)=C\C=C\[C@H](C)[C@H](O)[C@@H](C)[C@@H](O)[C@@H](C)[C@H](OC(C)=O)[C@@H]1C [Rifampicin, reference compound] | – | – | – | – | FIC A = 0.25 | FIC A = 0.25 | 0.12 | 0.03 | 0.06
NNC(=O)c1ccncc1 [INH, isoniazid, reference compound] | – | – | – | – | FIC A = 0.25 | FIC A = 0.5 | 0.25 | 0.06 | 0.12
Cc1ccc(NC(=O)Nc2ccc(OC[C@@]3(C)Cn4cc([N+](=O)[O-])nc4O3)cc2)cc1 [IIA4, (R)-1-(4-methylphenyl)-3-{4-(2-methyl-6-nitro-2,3-dihydroimidazo[2,1-b]oxazol-2-yl)methoxyphenyl}urea] | >40 | > 10 | 0.06 (≈ 0.142 µM) | < 1 | – | – | – | – | –
CCc1ccc(NC(=O)Nc2ccc(OC[C@@]3(C)Cn4cc([N+](=O)[O-])nc4O3)cc2)cc1 [IIA2, (R)-1-(4-ethylphenyl)-3-{4-(2-methyl-6-nitro-2,3-dihydroimidazo[2,1-b]oxazol-2-yl)methoxyphenyl}urea] | >40 | > 10 | 0.5 (≈ 1.14 µM) | < 1 | – | – | – | – | –
C[C@]1(COc2ccc(NC(=O)Nc3ccc(F)cc3)cc2)Cn2cc([N+](=O)[O-])nc2O1 [IIA1, (R)-1-(4-fluorophenyl)-3-{4-(2-methyl-6-nitro-2,3-dihydroimidazo[2,1-b]oxazol-2-yl)methoxyphenyl}urea] | >40 | > 10 | 2 (≈ 4.68 µM) | – | – | – | – | – | –
C[C@]1(COc2ccc(-n3cc(COc4ccc(C(F)(F)F)cc4)nn3)cc2)Cn2cc([N+](=O)[O-])nc2O1 [IA27] | >40 | > 10 | 0.25 (≈ 0.484 µM) | < 1 | – | – | – | – | –
